Source: US4604386A, “3-(alkynylalkyloxy) cephalosporins” (Eli Lilly and Company, priority 1984, dated 1986)

Key:
[1] = mouse, in vivo
[2] = rat, in vivo
in vivo [3] = details: mouse, po, 20 mg/kg
in vivo [4] = details: rat, po, 20 mg/kg
Escherichia coli EC14 = experiment: standard agar dilution-method test (MIC); assay type: cell-based
Text: (§1) The MIC values were obtained by the standard agar dilution-method test.

Escherichia coli N10 = experiment: standard agar dilution-method test (MIC); assay type: cell-based
Text: as §1

Escherichia coli TEM = experiment: standard agar dilution-method test (MIC); assay type: cell-based
Text: as §1

Hemophilus influenzae 76 = experiment: standard agar dilution-method test (MIC); assay type: cell-based
Text: as §1

[5] = system: Hemophilus influenzae C.L.; experiment: standard agar dilution-method test (MIC); assay type: cell-based
Text: as §1

[6] = system: Klebsiella pneumoniae X26; experiment: standard agar dilution-method test (MIC); assay type: cell-based
Text: as §1

[7] = system: Klebsiella pneumoniae X65; experiment: standard agar dilution-method test (MIC); assay type: cell-based
Text: as §1

[8] = system: Staphylococcus aureus S13E; experiment: standard agar dilution-method test (MIC); assay type: cell-based
Text: as §1

[9] = system: Staphylococcus aureus V41; experiment: standard agar dilution-method test (MIC); assay type: cell-based
Text: as §1

[10] = system: Staphylococcus aureus X400; experiment: standard agar dilution-method test (MIC); assay type: cell-based
Text: as §1

[11] = system: Staphylococcus epidermidis EPI1; experiment: standard agar dilution-method test (MIC); assay type: cell-based
Text: as §1

[12] = system: Staphylococcus epidermidis EPI2; experiment: standard agar dilution-method test (MIC); assay type: cell-based
Text: as §1

[13] = system: Streptococcus group D 2041; experiment: standard agar dilution-method test (MIC); assay type: cell-based
Text: as §1

[14] = system: Streptococcus pneumoniae Park I; experiment: standard agar dilution-method test (MIC); assay type: cell-based
Text: as §1

[15] = system: Streptococcus pyogenes C203; experiment: standard agar dilution-method test (MIC); assay type: cell-based
Text: as §1

[16] = system: Klebsiella pneumoniae KAE; experiment: standard agar dilution-method test (MIC); assay type: cell-based
Text: (§2) Antibiotic activity of selected compounds of Formual 1 is illustrated by the following in vitro and in vivo test data in Table I, the minimum inhibitory concentration (MIC) for representative compounds against a wide range of gram-positive and gram-negative bacteria is presented. The MIC values were obtained by the standard agar dilution-method test.

[17] = system: Streptococcus group D X66; experiment: standard agar dilution-method test (MIC); assay type: cell-based
Text: as §2

[18] = system: Staphylococcus aureus X1.1; experiment: standard agar dilution-method test (MIC); assay type: cell-based
Text: as §1

Question: With `C#CCOC1=C(C(=O)O)N2C(=O)[C@@H](NC(=O)[C@H](N)c3ccccc3)[C@H]2SC1` [Test Compound 1, 7-(R)-[2'-(R)-2'-amino-2'-phenylacetamido]-3-(prop-1'-yn-3'-yloxy)-3-cephem-4-carboxylic acid zwitterion] as the compound, how does the “oral absorption characteristics in mice” value [1] read?
Answer: excellent oral absorption characteristics

Question: What about the “plasma levels in rats” value [2] of the same compound?
Answer: high plasma levels

Question: What about the concentration at 20 min (in vivo [3]) of the same compound?
Answer: 23100 ng/mL

Question: And the concentration at 40 min (in vivo [3])?
Answer: 12400 ng/mL

Question: And the concentration at 1 h (in vivo [3])?
Answer: 4000 ng/mL

Question: What about the concentration at 2 h (in vivo [3]) of the same compound?
Answer: 850 ng/mL

Question: And the concentration at 20 min (in vivo [4])?
Answer: 3900 ng/mL

Question: And the concentration at 1 h (in vivo [4])?
Answer: 15900 ng/mL

Question: What about the concentration at 2 h (in vivo [4]) of the same compound?
Answer: 19300 ng/mL

Question: What about the concentration at 4 h (in vivo [4]) of the same compound?
Answer: 14700 ng/mL

Question: And the concentration at 6 h (in vivo [4])?
Answer: 12300 ng/mL

Question: What about the concentration at 9 h (in vivo [4]) of the same compound?
Answer: 8500 ng/mL

Question: Which “Minimum Inhibitory Concentration” value (Escherichia coli EC14) does the source give for “Benzhydryl 7-(R)-[(2'R)-2'-(N-(t-butylcarbamato))-2'-(para-hydroxyphenyl)acetamido]-3-(prop-1'-yn-3'-yloxy)-3-cephem-4-carboxylate [Example 4]” here?
Answer: 2 µg/mL

Question: What about the “Minimum Inhibitory Concentration” value (Escherichia coli N10) of the same compound?
Answer: 4 µg/mL

Question: And the “Minimum Inhibitory Concentration” value (Escherichia coli TEM)?
Answer: 8 µg/mL

Question: And the “Minimum Inhibitory Concentration” value (Hemophilus influenzae 76)?
Answer: 8 µg/mL

Question: What about the “Minimum Inhibitory Concentration” value [5] of the same compound?
Answer: 8 µg/mL

Question: And the “Minimum Inhibitory Concentration” value [6]?
Answer: 2 µg/mL

Question: And the “Minimum Inhibitory Concentration” value [7]?
Answer: 2 µg/mL

Question: And the “Minimum Inhibitory Concentration” value [8]?
Answer: 16 µg/mL

Question: What about the “Minimum Inhibitory Concentration” value [9] of the same compound?
Answer: 8 µg/mL

Question: What about the “Minimum Inhibitory Concentration” value [10] of the same compound?
Answer: 64 µg/mL

Question: What about the “Minimum Inhibitory Concentration” value [11] of the same compound?
Answer: 8 µg/mL

Question: And the “Minimum Inhibitory Concentration” value [12]?
Answer: 1 µg/mL

Question: And the “Minimum Inhibitory Concentration” value [13]?
Answer: 32 µg/mL

Question: What about the “Minimum Inhibitory Concentration” value [14] of the same compound?
Answer: 0.5 µg/mL

Question: And the “Minimum Inhibitory Concentration” value [15]?
Answer: 0.06 µg/mL

Question: And the “Minimum Inhibitory Concentration” value [16]?
Answer: 64 µg/mL

Question: And the “Minimum Inhibitory Concentration” value [17]?
Answer: 64 µg/mL

Question: Which “Minimum Inhibitory Concentration” value (Escherichia coli EC14) does the source give for “Para-nitrobenzyl 7-(R)-[(2'R)-2'-(N-(t-butylcarbamato))-2' -phenylacetamido]-3-(prop-1'-yn-3'-yloxy)-3-cephem-4-carboxylate [Example 3]” here?
Answer: 64 µg/mL

Question: And the “Minimum Inhibitory Concentration” value (Escherichia coli N10)?
Answer: 128 µg/mL

Question: What about the “Minimum Inhibitory Concentration” value (Escherichia coli TEM) of the same compound?
Answer: 128 µg/mL

Question: What about the “Minimum Inhibitory Concentration” value (Hemophilus influenzae 76) of the same compound?
Answer: 128 µg/mL

Question: And the “Minimum Inhibitory Concentration” value [5]?
Answer: 128 µg/mL

Question: What about the “Minimum Inhibitory Concentration” value [6] of the same compound?
Answer: 64 µg/mL

Question: And the “Minimum Inhibitory Concentration” value [7]?
Answer: 128 µg/mL

Question: What about the “Minimum Inhibitory Concentration” value [8] of the same compound?
Answer: 128 µg/mL

Question: What about the “Minimum Inhibitory Concentration” value [9] of the same compound?
Answer: 128 µg/mL

Question: And the “Minimum Inhibitory Concentration” value [18]?
Answer: 8 µg/mL

Question: What about the “Minimum Inhibitory Concentration” value [10] of the same compound?
Answer: 128 µg/mL

Question: And the “Minimum Inhibitory Concentration” value [11]?
Answer: 128 µg/mL

Question: And the “Minimum Inhibitory Concentration” value [12]?
Answer: 8 µg/mL

Question: And the “Minimum Inhibitory Concentration” value [13]?
Answer: 128 µg/mL

Question: And the “Minimum Inhibitory Concentration” value [14]?
Answer: 1 µg/mL

Question: What about the “Minimum Inhibitory Concentration” value [15] of the same compound?
Answer: 0.5 µg/mL

Question: What about the “Minimum Inhibitory Concentration” value [16] of the same compound?
Answer: 128 µg/mL

Question: What about the “Minimum Inhibitory Concentration” value [17] of the same compound?
Answer: 128 µg/mL

Question: Which “Minimum Inhibitory Concentration” value (Escherichia coli EC14) does the source give for “Para-nitrobenzyl 7-(R)-phenoxyacetamido-3-(but-2'-yn-4'-yloxy)-3-cephem-4-carboxylate [Example 6]” here?
Answer: 4 µg/mL

Question: And the “Minimum Inhibitory Concentration” value (Escherichia coli N10)?
Answer: 8 µg/mL

Question: What about the “Minimum Inhibitory Concentration” value (Escherichia coli TEM) of the same compound?
Answer: 16 µg/mL

Question: What about the “Minimum Inhibitory Concentration” value (Hemophilus influenzae 76) of the same compound?
Answer: 4 µg/mL

Question: And the “Minimum Inhibitory Concentration” value [5]?
Answer: 8 µg/mL

Question: What about the “Minimum Inhibitory Concentration” value [6] of the same compound?
Answer: 4 µg/mL

Question: And the “Minimum Inhibitory Concentration” value [7]?
Answer: 4 µg/mL

Question: And the “Minimum Inhibitory Concentration” value [8]?
Answer: 64 µg/mL

Question: What about the “Minimum Inhibitory Concentration” value [9] of the same compound?
Answer: 64 µg/mL

Question: What about the “Minimum Inhibitory Concentration” value [18] of the same compound?
Answer: 0.5 µg/mL

Question: What about the “Minimum Inhibitory Concentration” value [10] of the same compound?
Answer: 64 µg/mL

Question: What about the “Minimum Inhibitory Concentration” value [11] of the same compound?
Answer: 16 µg/mL

Question: What about the “Minimum Inhibitory Concentration” value [12] of the same compound?
Answer: 1 µg/mL

Question: What about the “Minimum Inhibitory Concentration” value [13] of the same compound?
Answer: 32 µg/mL

Question: And the “Minimum Inhibitory Concentration” value [14]?
Answer: 0.25 µg/mL

Question: And the “Minimum Inhibitory Concentration” value [15]?
Answer: 0.06 µg/mL

Question: And the “Minimum Inhibitory Concentration” value [16]?
Answer: 128 µg/mL

Question: What about the “Minimum Inhibitory Concentration” value [17] of the same compound?
Answer: 128 µg/mL

Question: Which “Minimum Inhibitory Concentration” value (Escherichia coli EC14) does the source give for “Para-nitrobenzyl 7-(R)-phenoxyacetamido-3-(prop-1'-yn-3'-yloxy)-3-cephem-4-carboxylate [Example 1]” here?
Answer: 2 µg/mL

Question: And the “Minimum Inhibitory Concentration” value (Escherichia coli N10)?
Answer: 4 µg/mL

Question: What about the “Minimum Inhibitory Concentration” value (Escherichia coli TEM) of the same compound?
Answer: 8 µg/mL

Question: And the “Minimum Inhibitory Concentration” value (Hemophilus influenzae 76)?
Answer: 4 µg/mL

Question: And the “Minimum Inhibitory Concentration” value [5]?
Answer: 4 µg/mL

Question: What about the “Minimum Inhibitory Concentration” value [6] of the same compound?
Answer: 2 µg/mL

Question: And the “Minimum Inhibitory Concentration” value [7]?
Answer: 4 µg/mL

Question: And the “Minimum Inhibitory Concentration” value [8]?
Answer: 32 µg/mL

Question: What about the “Minimum Inhibitory Concentration” value [9] of the same compound?
Answer: 32 µg/mL

Question: And the “Minimum Inhibitory Concentration” value [18]?
Answer: 2 µg/mL

Question: What about the “Minimum Inhibitory Concentration” value [10] of the same compound?
Answer: 64 µg/mL

Question: What about the “Minimum Inhibitory Concentration” value [11] of the same compound?
Answer: 8 µg/mL

Question: What about the “Minimum Inhibitory Concentration” value [12] of the same compound?
Answer: 2 µg/mL

Question: And the “Minimum Inhibitory Concentration” value [13]?
Answer: 128 µg/mL

Question: What about the “Minimum Inhibitory Concentration” value [14] of the same compound?
Answer: 1 µg/mL

Question: And the “Minimum Inhibitory Concentration” value [15]?
Answer: 0.25 µg/mL

Question: What about the “Minimum Inhibitory Concentration” value [16] of the same compound?
Answer: 128 µg/mL

Question: What about the “Minimum Inhibitory Concentration” value [17] of the same compound?
Answer: 128 µg/mL

Question: Which “Minimum Inhibitory Concentration” value (Escherichia coli EC14) does the source give for “benzhydryl 7-(R)-[(2'R)-2'-(N-(t-butylcarbamato))-2'-phenylacetamido]-3-(prop-1'-yn-3'-yloxy)-3-cephem-4-carboxylate [Example 2]” here?
Answer: 4 µg/mL

Question: And the “Minimum Inhibitory Concentration” value (Escherichia coli N10)?
Answer: 16 µg/mL

Question: What about the “Minimum Inhibitory Concentration” value (Escherichia coli TEM) of the same compound?
Answer: 16 µg/mL

Question: And the “Minimum Inhibitory Concentration” value (Hemophilus influenzae 76)?
Answer: 8 µg/mL

Question: And the “Minimum Inhibitory Concentration” value [5]?
Answer: 4 µg/mL

Question: And the “Minimum Inhibitory Concentration” value [6]?
Answer: 2 µg/mL

Question: What about the “Minimum Inhibitory Concentration” value [7] of the same compound?
Answer: 4 µg/mL

Question: What about the “Minimum Inhibitory Concentration” value [8] of the same compound?
Answer: 128 µg/mL

Question: And the “Minimum Inhibitory Concentration” value [9]?
Answer: 128 µg/mL

Question: And the “Minimum Inhibitory Concentration” value [18]?
Answer: 2 µg/mL

Question: What about the “Minimum Inhibitory Concentration” value [10] of the same compound?
Answer: 128 µg/mL

Question: What about the “Minimum Inhibitory Concentration” value [11] of the same compound?
Answer: 32 µg/mL

Question: What about the “Minimum Inhibitory Concentration” value [12] of the same compound?
Answer: 2 µg/mL

Question: What about the “Minimum Inhibitory Concentration” value [13] of the same compound?
Answer: 64 µg/mL

Question: What about the “Minimum Inhibitory Concentration” value [14] of the same compound?
Answer: 0.25 µg/mL

Question: What about the “Minimum Inhibitory Concentration” value [15] of the same compound?
Answer: 0.06 µg/mL

Question: What about the “Minimum Inhibitory Concentration” value [16] of the same compound?
Answer: 128 µg/mL

Question: What about the “Minimum Inhibitory Concentration” value [17] of the same compound?
Answer: 128 µg/mL
